Experimental data published in patent publication US20140336182A1, “Aurora Kinase Modulators and Method of Use” (Amgen Inc., priority 2013, published 2014).
Where two headings read alike, the source gives them in different places.

Key:
[1] = molecular target: T1, AuroraB (Homo sapiens, UniProt Q96GD4); experiment: AuroraB Homogeneous Time Resolved Fluorescent (HTRF) kinase assay; type: biochemical; settings: average; read-out: AurB_IC50_IP (uM Avg)
T1 construct: 20 μL of AuroraB FL H is for a final volume of 41 μL; His

[2] = tested on: HeLa cells; experiment: HeLa cell 24 hr ploidy assay (DNA content); type: cell-based; settings: average, read-out: 24h_4NPloidy EC50_IP (uM Avg)
In short: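 HeLa cells (1×10^4/well, MEM+10% FBS) cultured 24 h, treated with serially diluted compounds (0.25% DMSO final), then fixed, permeabilized and stained with Hoechst 33342 (0.5 ug/ml). Imaging quantified % 4N and >4N cells; EC50 IP and EC50 transit derived from dose curves.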

[3] = molecular target: T2, AuroraA-TPX2 (Homo sapiens, UniProt O14965); experiment: AuroraA-TPX2 Homogeneous Time Resolved Fluorescent (HTRF) kinase assay
T2 sequence (O14965 133-383 limits assumed): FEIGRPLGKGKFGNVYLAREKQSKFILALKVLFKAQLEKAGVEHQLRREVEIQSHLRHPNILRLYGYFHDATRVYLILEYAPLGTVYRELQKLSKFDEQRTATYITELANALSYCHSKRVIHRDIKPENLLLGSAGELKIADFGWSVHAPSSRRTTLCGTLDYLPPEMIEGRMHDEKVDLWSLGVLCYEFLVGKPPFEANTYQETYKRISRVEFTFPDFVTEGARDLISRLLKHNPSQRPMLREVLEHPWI
T2 sequence (Q9ULW0 1-43 partner limits assumed): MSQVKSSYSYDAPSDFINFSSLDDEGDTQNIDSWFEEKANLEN

[4] = Solubility in DMSO (observation in the synthesis); type: physicochemical; settings: DMSO at rt
Procedure: The reaction was cooled to rt. Hexane was added to induce the product to precipitate out of the reaction mixture. The resulting red solid was filtered with an aid of hexane. LCMS confirmed that the solid was the product. The product was purified by performing a column chromatography on silica gel using 60:40 CH2Cl2:(90:10:1 CH2Cl2:MeOH:NH4OH). Yellow solid was obtained. LCMS confirmed product. […] MS Calcd for […]: [M]=472. Found: [M+H]=473.

[5] = tested on: HCT116 xenografts, a human colon carcinoma model; experiment: HCT116 xenograft model, tumor growth inhibition; type: in vivo, athymic nude mice; settings: mice, p.o.
Procedure: Compounds of the present invention were evaluated in HCT116 xenografts, a human colon carcinoma model. […] These cells were grown as subcutaneous xenografts in female HSD (Harlan Sprague Dawley) athymic nude mice. Mice were implanted subcutaneously with 2×10^6 cells in matrigel on day 0. Treatment was initiated on day 10 with compounds of the invention at the indicated dosage p.o for 2 consecutive-days per week (intermittent schedule, such as 2 days on—5 days off) or 7-days (continuous schedule) per week, for a selected number of weeks. For example, in one study, animals were dosed with selected compound samples BID on an intermittent dosing paradigm of two days on and then 5 days off per week, for four weeks (four dosing cycles) at 15, 7.5, and 3.75 mg/kg. Tumor growth inhibition and body weights were measured throughout the study and compared to the vehicle control group. All groups were provided nutritional supplements on a daily basis throughout the study to maintain body weight. Terminal neutrophil counts were taken at the end of this study. Measures were made by ANOVA followed by Scheffe post hoc test using StatView software v5.0.1.
10 Flasks containing a total of 7.68×10^8 HCT 116 tumor cells were harvested for tumor cell implantation. HCT 116 cells were re-suspended to a cell concentration of about 2×10^7 cells/ml in serum-free McCoys 5A media+50% matrigel. Cell viability was measured to be about 99.3%.
Female Athymic Nude mice approximately 14 weeks of age (Harlan Sprague Dawley) were used for the experiment. […] On Day 9, tumor-bearing mice were measured and randomized into five groups (n=10). […] During the dosing period, mouse tumor volumes were measured with a digital caliper and weighed twice per week. Tumor volumes were calculated as follows: Tumor Volume (mm^3)=[(W^2 X L)/2] where width (W) is defined as the smaller of the 2 measurements and length (L) is defined as the larger of the 2 measurements.

[6] = read-out: AurA_IC50_IP (uM Avg), average
[7] = Homo sapiens, HeLa, HeLa cells, 4N ploidy

T1 sequence (Q96GD4 whole entry): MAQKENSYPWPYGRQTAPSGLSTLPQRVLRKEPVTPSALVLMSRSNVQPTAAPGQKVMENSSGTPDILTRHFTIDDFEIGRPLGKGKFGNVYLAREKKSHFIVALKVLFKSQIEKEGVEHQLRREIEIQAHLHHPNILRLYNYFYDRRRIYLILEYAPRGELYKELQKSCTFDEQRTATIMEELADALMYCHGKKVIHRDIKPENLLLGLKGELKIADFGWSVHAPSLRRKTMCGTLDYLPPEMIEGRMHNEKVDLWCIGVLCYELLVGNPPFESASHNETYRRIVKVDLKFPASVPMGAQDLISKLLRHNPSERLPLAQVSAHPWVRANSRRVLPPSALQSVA

Compound | EC50 [2, 7] [µM] | also measured
4-(4,5-dimethylthiophen-2-yl)-N-(4-(7-methoxy-1,5-naphthyridin-4-yloxy)phenyl)phthalazin-1-amine [Example 34] | – | IC50 [1]: 0.01 µM; EC50 ([2]; HeLa cells, 4N ploidy): 0.062 µM; IC50 [3, 6]: 0.013 µM
COc1cnc2c(Nc3cnc(Nc4nnc(-c5ccccc5)c5ccccc45)nc3)ccnc2c1 [Example 36, N^5-(7-Methoxy-1,5-naphthyridin-4-yl)-N^2-(4-phenylphthalazin-1-yl)pyrimidine-2,5-diamine] | – | solubility in DMSO [4]: slightly soluble; EC50 ([2]; Homo sapiens, HeLa, 4N ploidy): 0.326 µM
COc1ccc2c(Cc3ccc(Nc4nnc(-c5ccccc5)c5ccccc45)cc3)ccnc2c1 [Example 53, N-(4-((7-methoxyquinolin-4-yl)methyl)phenyl)-4-phenylphthalazin-1-amine] | 0.105 | IC50 [1]: 0.003 µM; IC50 [3, 6]: 0.153 µM
COc1cnc2c(Oc3ccc(Nc4nnc(-c5ccc(Cl)cc5)c5ccccc45)cc3)ccnc2c1 [Example 160, 4-(4-chlorophenyl)-N-(4-((7-(methyloxy)-1,5-naphthyridin-4-yl)oxy)phenyl)-1-phthalazinamine] | – | inhibition of tumor growth ([5]; 3.75 mg/kg 2-day dosing scheduling QD): 86%; EC50 ([2]; Homo sapiens, HeLa, 4N ploidy): 0.005 µM
COc1cnc2c(Oc3ccc(Nc4nnc(-c5ccc6c(c5)OCO6)c5ccccc45)cc3)ccnc2c1 [Example 165, 4-(1,3-benzodioxol-5-yl)-N-(4-((7-(methyloxy)-1,5-naphthyridin-4-yl)oxy)phenyl)-1-phthalazinamine] | 0.006 | inhibition of tumor growth ([5]; 2.5 mg/kg 2-day dosing scheduling BID): 63%
COc1cnc2c(Sc3ccc(Nc4nnc(-c5ccccc5)c5ccccc45)cc3)ccnc2c1 [Example 207, N-(4-((7-(methyloxy)-1,5-naphthyridin-4-yl)thio)phenyl)-4-phenyl-1-phthalazinamine] | 0.005 | inhibition of tumor growth ([5]; 5.0 mg/kg 2-day dosing scheduling QD): 67%
Fc1cc(Nc2nnc(-c3ccc(Cl)cc3)c3ccccc23)ccc1Oc1ccnc2ccccc12 [compound 244] | 0.04 | IC50 [1]: 0.003 µM; IC50 [3]: 0.048 µM
COc1cnc2c(Sc3ccc(Nc4nnc(N5CCC(OC)CC5)c5ccccc45)cc3)ccnc2c1 [compound 520] | 0.004 | IC50 [1]: 0.017 µM; IC50 [3]: 0.027 µM
COc1cnc2c(Sc3ccc(Nc4nnc(N5CCN6CCCC[C@H]6C5)c5ccccc45)cc3)ccnc2c1 [compound 585] | 0.018 | –
COc1cnc2c(Oc3ccc(Nc4nnc(N5CC[C@H]6CCCC[C@@H]6C5)c5ccccc45)cc3)ccnc2c1 [compound 586] | 0.028 | –
COc1cnc2c(Oc3ccc(Nc4nnc(N5CC[C@@H]6CCCC[C@H]6C5)c5ccccc45)cc3)ccnc2c1 [compound 587] | 0.14 | –
COc1cnc2c(Sc3ccc(Nc4nnc(-c5ccc(C)nc5)c5ccccc45)cc3)ccnc2c1 [compound 588] | 0.004 | –
Cc1csc(-c2nnc(Nc3ccc(Sc4ccnc5ccc(=O)[nH]c45)cc3)c3ccccc23)c1 [compound 589] | 0.007 | –
COc1cc(OC)c2c(Oc3ccc(Nc4nnc(-c5ccc(Cl)cc5)c5ccccc45)cc3)ncnc2c1 [compound 590] | 0.004 | –
Clc1ccc(-c2nnc(Nc3ccc(Oc4ncnc5ccsc45)cc3)c3ccccc23)cc1 [compound 591] | 0.115 | –
N#Cc1ccc2nccc(Oc3ccc(Nc4nnc(-c5ccccc5)c5ccccc45)cc3)c2c1 [compound 592] | 0.147 | –
COCc1cc(-c2ccccc2)nnc1Nc1ccc(Oc2ccnc3cc(OC)cnc23)cc1 [compound 593] | > 1.2 | –
CCc1cc(-c2ccc3c(c2)OCO3)nnc1Nc1ccc(Oc2ccnc3cc(OC)cnc23)cc1 [compound 594] | 0.202 | –

Compound | EC50 [2, 7] [µM] | also measured
CCc1cc(-c2ccc(C)cc2)nnc1Nc1ccc(Nc2ccnc3cc(OC)cnc23)cc1 [compound 595] | 0.083 | –
CCc1cc(-c2ccc(C)cc2)nnc1Nc1ccc(Nc2ccnc3cc(C#N)ccc23)cc1 [compound 596] | 0.084 | –
COc1cc2nccc(Sc3ccc(Nc4nnc(-c5ccccc5)c5ccccc45)cc3)c2nc1OC [compound 597] | 0.061 | –
COc1cc2nccc(Sc3ccc(Nc4nnc(-c5ccc(Cl)cc5)c5ccccc45)cc3)c2nc1OC [compound 598] | 0.028 | –
Brc1cnc2c(Oc3ccc(Nc4nnc(-c5ccccc5)c5ccccc45)cc3)ncnc2c1 [compound 599] | > 1.2 | –
COc1cnc2c(Sc3ccc(Nc4nnc(N5CCN6C[C@H](F)C[C@H]6C5)c5ccccc45)cc3)ccnc2c1 [compound 600] | 0.007 | –
COc1cnc2c(Sc3ccc(Nc4nnc(N5CCN6CC(F)(F)C[C@H]6C5)c5ccccc45)cc3)ccnc2c1 [compound 601] | 0.005 | –
COc1cnc2c(Oc3ccc(Nc4nnc(N5CCN6CCCCC[C@@H]6C5)c5ccccc45)cc3)ccnc2c1 [compound 604] | 0.087 | –
COc1cnc2c(Sc3ccc(Nc4nnc(N5CCN(S(C)(=O)=O)CC5)c5ccccc45)cc3)ccnc2c1 [compound 605] | 0.018 | –
COc1cc(OC)c2c(Oc3ccc(Nc4nnc(-c5ccccc5)c5ccccc45)cn3)ncnc2c1 [compound 606] | 0.292 | –
COc1cnc2c(Oc3ccc(Nc4nnc(N5CCN(S(C)(=O)=O)CC5)c5ccccc45)cc3)ccnc2c1 [compound 607] | 0.482 | –
COc1cnc2c(Sc3ccc(Nc4nnc(N5CCN(C(C)=O)CC5)c5ccccc45)cc3)ccnc2c1 [compound 608] | 0.016 | –
CCc1cc(-c2ccccc2OC)nnc1Nc1ccc(Sc2ccnc3cc(OC)cnc23)cc1 [compound 609] | – | EC50 ([2]; Homo sapiens, HeLa, HeLa cells): 0.055 µM
Clc1ccc(-c2nnc(Nc3ccc(Oc4ccnc5cc(OCc6ccccc6)cnc45)cc3)c3ccccc23)cc1 [compound 610] | – | EC50 ([2]; Homo sapiens, HeLa, HeLa cells): 0.014 µM
COc1ccc2c(C(C)c3ccc(Nc4nnc(-c5ccc(Cl)cc5)c5ccccc45)cc3)ccnc2c1 (centres unmarked) [compound 613] | – | EC50 ([2]; Homo sapiens, HeLa, HeLa cells): > 1.2 µM
COc1ccc2c(C(O)c3ccc(Nc4nnc(-c5ccc(Cl)cc5)c5ccccc45)cc3)ccnc2c1 (centres unmarked) [compound 614] | – | EC50 ([2]; Homo sapiens, HeLa, HeLa cells): 0.053 µM
COc1ccc2c(C(=O)c3ccc(Nc4nnc(-c5ccc(Cl)cc5)c5ccccc45)cc3)ccnc2c1 [compound 615] | – | EC50 ([2]; Homo sapiens, HeLa, HeLa cells): 0.15 µM
N-(5-(7-methoxy-1,5-naphthyridin-4-yloxy)pyridin-2-yl)-4-phenylphthalazin-1-amine [Example 54] | – | IC50 [1]: 0.02 µM; EC50 ([2]; HeLa cells, 4N ploidy): 0.028 µM; IC50 [3, 6]: 0.176 µM
